From US20250145628A1, “PYRAZOLOPYRIMIDINES, COMPOSITIONS COMPRISING THEM AND USES THEREOF” (Novo Nordisk A/S, priority 2022, published 2025)

How the values were obtained:
[1] = biological target: T1, human CB1 receptor (Homo sapiens, UniProt P21554); experiment: bioSensAll β-arrestin plasma membrane translocation BRET biosensor (+GRK2) assay (antagonism of CP-55,940); assay type: cell-based; conditions: HEK293 cells transfected with hCB1 and β-arrestin PM translocation biosensor (+GRK2), EC75 of CP-55,940 (100 nM), overnight incubation, read-out: CB1 wt βarr2 IC50
T1 construct: expressed in transfected cells; host or cells: HEK293
Protocol: (§1) Using polyethylenimine (PEI) transfection agent, HEK293 cells were transfected in suspension with the human CB1 or CB1b receptor and one of the following bioSensAll® assays: GAPL-Gi2, or β-arrestin plasma membrane (PM) translocation biosensor (+GRK2). Cells were directly seeded in 96-well plates immediately following transfection.
(§2) Cells were incubated with coelenterazine (luciferase substrate) and different test compounds prior to the measurement of BRET signals.
ii) The multimolecular β-arrestin membrane recruitment biosensors allow for real-time spatio-temporal monitoring of β-arrestin 1 and β-arrestin 2 following GPCR activation. Specifically, these β-arrestin sensors were designed to detect the recruitment of proteins to the plasma membrane (β-arrestin PM) with localization to compartment resulting in an increased BRET signal.
(§3) HEK293 cells were maintained in Dulbecco's Modified Eagle Medium (DMEM) (Wisent; cat #319-030-CL: without sodium pyruvate, with 4.5 g/L glucose, without L-glutamine) supplemented with 1% penicillin-streptomycin (Wisent; cat #450-201-EL) and 2 or 10% fetal bovine serum (Wisent cat #090150).
(§4) HEK293 cells were co-transfected with hCB1 or hCB1b and one of the above-listed bioSensAll® assays. For each transfection condition: • the total amount of transfected DNA was kept constant at 1 μg per mL of cell culture to be transfected; whenever necessary, salmon sperm DNA (Invitrogen, cat #15632011) was used as ‘carrier’ DNA to supplement plasmid DNA (i.e., biosensor and receptor); • the PEI (polyethylenimine 25 kDa linear, PolyScience, cat #23966) to DNA ratio (ug:ug) was fixed at 3:1.
(§5) Transfections were carried out as follows: • DNA and PEI were first diluted separately in 150 mM NaCl. The volume of the diluent in each tube corresponds to 5% of the cell culture volume to be transfected. • Once DNA and PEI were diluted, the PEI-containing solution was added to the DNA solution and the DNA/PEI mixture immediately vortexed for 5 seconds. • The DNA/PEI mixture was incubated for at least 20 minutes at room temperature to allow for the formation of DNA/PEI complexes. • During the incubation, HEK293 cells were detached, counted and re-suspended in culture medium (composition specified above). • At the end of the incubation period, the DNA/PEI mixture was added to the cells. • Cells were finally distributed in 96-well plates (White Opaque 96-well/Microplates, Greiner, cat #655083 or CulturPlate-96, White Opaque 96-well Microplate, PerkinElmer, cat #6005688) at a density of 30 000 cells per well.
(§6) At ˜48 hours post-transfection: • Using 450-Select TS Biotek plate washer, culture medium was aspirated and replaced with 100 μl of Hank's Balanced Salt Solution buffer (HBSS) (Wisent, cat #319-067CL: without red phenol; with sodium bicarbonate, with calcium and magnesium, with HEPES) per well. This process was performed a total of two times (i.e., 2 washes). • After the washing step, the HP D300 digital dispenser (Tecan) was used to inject increasing doses (12) of test compounds (ranging from 0-600 nM) to wells. Three to five minutes later, an EC75 of CP-55,940 (0.1 nM for GAPL-Gi2 assay; 100 nM for β-arrestin PM translocation biosensor (+GRK2)) was added to columns 2-12 of each 96-well plate.
(§7) BRET signals were determined by calculating the ratio of light emitted by GFP-acceptor (515 nm) over light emitted by luciferase-donor (400 nm). All BRET ratios were standardized using the equation below with pre-established BRET values for positive and negative controls. The standardized BRET ratio is referred to as universal BRET (uBRET).
(§8) Resulting dose-response curves were fitted using the four-parameter logistic non-linear regression model in GraphPad Prism 9.

[2] = biological target: T1, human CB1 receptor; experiment: bioSensAll GAPL-Gi2 BRET biosensor assay (antagonism of CP-55,940); assay type: cell-based; conditions: HEK293 cells transfected with hCB1 and GAPL-Gi2 biosensor, EC75 of CP-55,940 (0.1 nM), overnight incubation, read-out: CB1 wt Gi2 IC50
Protocol: as §1, §2
i) GAPL sensors are used to monitor the activation of heterotrimeric G proteins at the plasma membrane upon receptor stimulation. Specifically, these multimolecular BRET sensors detect the plasma membrane recruitment of proteins that interact with active Ga subunits in a G protein family-selective manner. G protein activation following receptor stimulation generally leads to an increase in the BRET signal.
as §3, §4, §5, §6, §7, §8

T1 sequence (P21554 whole entry): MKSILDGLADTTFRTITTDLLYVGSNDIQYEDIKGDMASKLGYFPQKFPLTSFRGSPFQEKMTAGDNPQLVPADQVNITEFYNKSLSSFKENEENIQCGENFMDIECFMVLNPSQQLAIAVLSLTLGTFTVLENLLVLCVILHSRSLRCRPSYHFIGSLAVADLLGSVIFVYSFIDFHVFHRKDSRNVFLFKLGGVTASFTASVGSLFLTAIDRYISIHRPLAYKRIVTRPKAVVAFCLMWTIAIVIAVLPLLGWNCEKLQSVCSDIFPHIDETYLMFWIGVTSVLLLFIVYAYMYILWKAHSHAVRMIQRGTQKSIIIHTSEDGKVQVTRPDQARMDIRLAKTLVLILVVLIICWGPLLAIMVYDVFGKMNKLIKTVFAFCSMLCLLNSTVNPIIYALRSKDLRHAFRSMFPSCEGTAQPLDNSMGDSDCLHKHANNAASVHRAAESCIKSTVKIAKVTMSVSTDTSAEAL

Row | SMILES | IC50 [1] [nM] | IC50 [2] [nM]
1 | NC(=O)CC1CN(c2cc(N3CCC[C@H]3C(N)=O)nc3c(-c4ccc(Cl)cc4)c(-c4ccccc4Cl)nn23)C1 [Compound 35, (2S)-1-[7-[3-(2-amino-2-oxo-ethyl)azetidin-1-yl]-2-(2-chlorophenyl)-3-(4-chlorophenyl)pyrazolo[1,5-a]pyrimidin-5-yl]pyrrolidine-2-carboxamide] | > 10000 | 158
2 | CCNC(=O)CN(C)c1cc(N2CC[C@H](CC(N)=O)C2)n2nc(-c3ccccc3Cl)c(-c3ccc(Cl)cc3)c2n1 [Compound 36, 2-[(3R)-1-[2-(2-chlorophenyl)-3-(4-chlorophenyl)-5-[[2-(ethylamino)-2-oxo-ethyl]-methyl-amino]pyrazolo[1,5-a]pyrimidin-7-yl]pyrrolidin-3-yl]acetamide] | 325 | 150
3 | CC1(C(N)=O)CCN(c2cc(N3CCC[C@H]3C(N)=O)nc3c(-c4ccc(Cl)cc4)c(-c4ccccc4Cl)nn23)CC1 [Compound 37, 1-[5-[(2S)-2-carbamoylpyrrolidin-1-yl]-2-(2-chlorophenyl)-3-(4-chlorophenyl)pyrazolo[1,5-a]pyrimidin-7-yl]-4-methyl-piperidine-4-carboxamide] | 35.3 | 5.91
4 | CNC(=O)CCN(C)c1cc(N2CCC(C)(C(N)=O)CC2)n2nc(-c3ccccc3Cl)c(-c3ccc(Cl)cc3)c2n1 [Compound 38, 1-[2-(2-chlorophenyl)-3-(4-chlorophenyl)-5-[methyl-[3-(methylamino)-3-oxo-propyl]amino]pyrazolo[1,5-a]pyrimidin-7-yl]-4-methyl-piperidine-4-carboxamide] | 10.9 | 2.48
5 | CNC(=O)CCN(C)c1cc(N2CC(CC(N)=O)C2)n2nc(-c3ccccc3Cl)c(-c3ccc(Cl)cc3)c2n1 [Compound 39, 3-[[7-[3-(2-amino-2-oxo-ethyl)azetidin-1-yl]-2-(2-chlorophenyl)-3-(4-chlorophenyl)pyrazolo[1,5-a]pyrimidin-5-yl]-methyl-amino]-N-methyl-propanamide] | 107 | 34.4
6 | CN(CP(C)(C)=O)c1cc(N2CCC(C)(C(N)=O)CC2)n2nc(-c3ccccc3Cl)c(-c3ccc(Cl)cc3)c2n1 [Compound 40, 1-[2-(2-chlorophenyl)-3-(4-chlorophenyl)-5-[dimethylphosphorylmethyl (methyl)amino]pyrazolo[1,5-a]pyrimidin-7-yl]-4-methyl-piperidine-4-carboxamide] | 112 | 17.3
7 | CNC(=O)CCN(C)c1cc(N2CCC[C@@H](C(N)=O)C2)n2nc(-c3ccccc3Cl)c(-c3ccc(Cl)cc3)c2n1 [Compound 41, (3R)-1-[2-(2-chlorophenyl)-3-(4-chlorophenyl)-5-[methyl-[3-(methylamino)-3-oxo-propyl]amino]pyrazolo[1,5-a]pyrimidin-7-yl]piperidine-3-carboxamide] | 161 | 93
8 | CCOC1(C(N)=O)CCN(c2cc(OCC(C)(C)O)nc3c(-c4ccc(Cl)cc4)c(-c4ccccc4Cl)nn23)CC1 [Compound 42, 1-[2-(2-chlorophenyl)-3-(4-chlorophenyl)-5-(2-hydroxy-2-methyl-propoxy)pyrazolo[1,5-a]pyrimidin-7-yl]-4-ethoxy-piperidine-4-carboxamide] | 4.73 | 1.67
9 | CCOC1(C(N)=O)CCN(c2cc(N(C)CCO)nc3c(-c4ccc(Cl)cc4)c(-c4ccccc4Cl)nn23)CC1 [Compound 43, 1-[2-(2-chlorophenyl)-3-(4-chlorophenyl)-5-[2-hydroxyethyl(methyl)amino]pyrazolo[1,5-a]pyrimidin-7-yl]-4-ethoxy-piperidine-4-carboxamide] | 2.75 | 0.97
10 | CCOC1(C(N)=O)CCN(c2cc(N(C)CC(C)(C)O)nc3c(-c4ccc(Cl)cc4)c(-c4ccccc4Cl)nn23)CC1 [Compound 44, 1-[2-(2-chlorophenyl)-3-(4-chlorophenyl)-5-[(2-hydroxy-2-methyl-propyl)-methyl-amino]pyrazolo[1,5-a]pyrimidin-7-yl]-4-ethoxy-piperidine-4-carboxamide] | 14.3 | 3.9
11 | CC(C)(O)COc1cc(-c2ccc(C(F)(F)F)nc2)n2nc(-c3ccccc3Cl)c(-c3ccc(Cl)cc3)c2n1 [Compound 45, 1-[2-(2-chlorophenyl)-3-(4-chlorophenyl)-7-[6-(trifluoromethyl)-3-pyridyl]pyrazolo[1,5-a]pyrimidin-5-yl]oxy-2-methyl-propan-2-ol] | 8.61 | 3.97
12 | CCNC(=O)CN(C)c1cc(N2CCC(C)(C(N)=O)CC2)n2nc(-c3ccccc3Cl)c(-c3ccc(Cl)cc3)c2n1 [Compound 46, 1-[2-(2-chlorophenyl)-3-(4-chlorophenyl)-5-[[2-(ethylamino)-2-oxo-ethyl]-methyl-amino]pyrazolo[1,5-a]pyrimidin-7-yl]-4-methyl-piperidine-4-carboxamide] | 29.9 | 3.79
13 | CCNC(=O)CNc1cc(N2CCC(C)(C(N)=O)CC2)n2nc(-c3ccccc3Cl)c(-c3ccc(Cl)cc3)c2n1 [Compound 47, 1-[2-(2-chlorophenyl)-3-(4-chlorophenyl)-5-[[2-(ethylamino)-2-oxo-ethyl]amino]pyrazolo[1,5-a]pyrimidin-7-yl]-4-methyl-piperidine-4-carboxamide] | 131 | 33.7
14 | CCNC(=O)CN(C)c1cc(N2CCC(OCC)(C(N)=O)CC2)n2nc(-c3ccccc3Cl)c(-c3ccc(Cl)cc3)c2n1 [Compound 48, 1-[2-(2-chlorophenyl)-3-(4-chlorophenyl)-5-[[2-(ethylamino)-2-oxo-ethyl]-methyl-amino]pyrazolo[1,5-a]pyrimidin-7-yl]-4-ethoxy-piperidine-4-carboxamide] | 19.4 | 3.89
15 | CC(C)(O)CNc1cc(N2CCC(C)(C(N)=O)CC2)n2nc(-c3ccccc3Cl)c(-c3ccc(Cl)cc3)c2n1 [Compound 49, 1-[2-(2-chlorophenyl)-3-(4-chlorophenyl)-5-[(2-hydroxy-2-methyl-propyl)amino]pyrazolo[1,5-a]pyrimidin-7-yl]-4-methyl-piperidine-4-carboxamide] | 25.4 | 9.13
16 | COc1ccc(-c2cc(N3CCC[C@H]3CO)nc3c(-c4ccc(Cl)cc4)c(-c4ccc(C#N)cc4)nn23)cc1 [Compound 50, 4-[3-(4-chlorophenyl)-5-[(2S)-2-(hydroxymethyl)pyrrolidin-1-yl]-7-(4-methoxyphenyl)pyrazolo[1,5-a]pyrimidin-2-yl]benzonitrile] | 4.79 | 2.21
17 | CC(C)(O)COc1cc(N2CC(C)(C#N)C2)n2nc(-c3ccc(C#N)nc3)c(-c3ccc(Cl)cc3)c2n1 [Compound 51, 5-[3-(4-chlorophenyl)-7-(3-cyano-3-methyl-azetidin-1-yl)-5-(2-hydroxy-2-methyl-propoxy)pyrazolo[1,5-a]pyrimidin-2-yl]pyridine-2-carbonitrile] | 1.73 | 0.95
18 | COC1(C)CN(c2cc(OCC(C)(C)O)nc3c(-c4ccc(Cl)cc4)c(-c4ccc(C#N)nc4)nn23)C1 [Compound 52, 5-[3-(4-chlorophenyl)-5-(2-hydroxy-2-methyl-propoxy)-7-(3-methoxy-3-methyl-azetidin-1-yl)pyrazolo[1,5-a]pyrimidin-2-yl]pyridine-2-carbonitrile] | 2.56 | 1.47
